PubChem BioAssay AID2060333 (Molecular Pharmacology Branch, DTP, NCI, 2025)

System: 845751-090-R-J2-PDC tumor spheroid viability
Assay: Anticancer human tumor 845751-090-R-J2-PDC patient-derived head and neck squamous carcinoma cell line growth inhibition [IpAb]
Conditions: spheroids with HUVEC and MSC; for IC50: curve of first compound; for viability, T/C: stronger effect = lower value
Method in brief: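 Combinations with ipatasertib or abemaciclib were tested on tumour spheroids holding HUVEC (25%) and MSC (15%) alongside 60% malignant cells. Top concentration was at or near clinical Cmax (10 microM if undefined), descending in half-log steps.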

[1] = second compound 0.01 µM, first compound 0.0316 µM
[2] = second compound 0.01 µM, first compound 0.1 µM
[3] = second compound 0.01 µM, first compound 0.316 µM
[4] = second compound 0.01 µM, first compound 1 µM
[5] = second compound 0.01 µM, first compound 3.16 µM
[6] = second compound 0.01 µM, first compound 10 µM
[7] = second compound 0.0316 µM, first compound 0.0316 µM
[8] = second compound 0.0316 µM, first compound 0.1 µM
[9] = second compound 0.0316 µM, first compound 0.316 µM
[10] = second compound 0.0316 µM, first compound 1 µM
[11] = second compound 0.0316 µM, first compound 3.16 µM
[12] = second compound 0.0316 µM, first compound 10 µM
[13] = second compound 0.1 µM, first compound 0.0316 µM
[14] = second compound 0.1 µM, first compound 0.1 µM
[15] = second compound 0.1 µM, first compound 0.316 µM
[16] = second compound 0.1 µM, first compound 1 µM
[17] = second compound 0.1 µM, first compound 3.16 µM
[18] = second compound 0.1 µM, first compound 10 µM
[19] = second compound 0.316 µM, first compound 0.0316 µM
[20] = second compound 0.316 µM, first compound 0.1 µM
[21] = second compound 0.316 µM, first compound 0.316 µM
[22] = second compound 0.316 µM, first compound 1 µM
[23] = second compound 0.316 µM, first compound 3.16 µM
[24] = second compound 0.316 µM, first compound 10 µM
[25] = second compound 1 µM, first compound 0.0316 µM
[26] = second compound 1 µM, first compound 0.1 µM
[27] = second compound 1 µM, first compound 0.316 µM
[28] = second compound 1 µM, first compound 1 µM
[29] = second compound 1 µM, first compound 3.16 µM
[30] = second compound 1 µM, first compound 10 µM
[31] = second compound 0.01 µM, first compound 0.00316 µM
[32] = second compound 0.01 µM, first compound 0.01 µM
[33] = second compound 0.0316 µM, first compound 0.00316 µM
[34] = second compound 0.0316 µM, first compound 0.01 µM
[35] = second compound 0.1 µM, first compound 0.00316 µM
[36] = second compound 0.1 µM, first compound 0.01 µM
[37] = second compound 0.316 µM, first compound 0.00316 µM
[38] = second compound 0.316 µM, first compound 0.01 µM
[39] = second compound 1 µM, first compound 0.00316 µM
[40] = second compound 1 µM, first compound 0.01 µM
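Further: spheroids exposed to compounds for 7 days before readout.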
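Wherever viability, T/C is given: CTG3D luminescence normalised so that 100% = DMSO vehicle control.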

SMILES	IC50 (second compound 0.01 µM)	IC50 (second compound 0.0316 µM)	IC50 (second compound 0.1 µM)	IC50 (second compound 0.316 µM)	IC50 (second compound 1 µM)	viability, T/C [1]	viability, T/C [2]	viability, T/C [3]	viability, T/C [4]	viability, T/C [7]	viability, T/C [8]	viability, T/C [9]	viability, T/C [10]	viability, T/C [13]	viability, T/C [14]	viability, T/C [15]	viability, T/C [19]	viability, T/C [20]	viability, T/C [25]	viability, T/C [26]	further results
C=CCn1c(=O)c2cnc(Nc3ccc(N4CCN(C)CC4)cc3)nc2n1-c1cccc(C(C)(C)O)n1 + CCN1CCN(Cc2ccc(Nc3ncc(F)c(-c4cc(F)c5nc(C)n(C(C)C)c5c4)n3)nc2)CC1	> 10000 nM	4170 nM	2000 nM	8970 nM	> 10000 nM	104%	68.3%	68.3%	57.4%	66.4%	71.4%	62.2%	60.8%	66.8%	64.8%	60.8%	59%	68.7%	88.9%	97.6%	viability, T/C [5]: 50.8%; viability, T/C [6]: 48.9%; viability, T/C [11]: 53.1%; viability, T/C [12]: 40.8%; viability, T/C [16]: 47.7%; viability, T/C [17]: 50.5%; viability, T/C [18]: 43.2%; viability, T/C [21]: 69.2%; viability, T/C [22]: 60.3%; viability, T/C [23]: 59.8%; viability, T/C [24]: 49.1%; viability, T/C [27]: 83.9%; viability, T/C [28]: 107%; viability, T/C [29]: 95.7%; viability, T/C [30]: 66.7%
CC(C)n1nc(-c2ccc3oc(N)nc3c2)c2c(N)ncnc21 + CCN1CCN(Cc2ccc(Nc3ncc(F)c(-c4cc(F)c5nc(C)n(C(C)C)c5c4)n3)nc2)CC1	1.1 nM	3.84 nM	2.92 nM	2.75 nM	12.3 nM	26.8%	21.1%			26.6%	23.5%			25.7%	20.6%		32.7%	30.2%	45.5%	34.7%	viability, T/C (second compound 0.01 µM, first compound 0.000316 µM): 72.6%; viability, T/C (second compound 0.01 µM, first compound 0.001 µM): 47.8%; viability, T/C [31]: 39.2%; viability, T/C [32]: 33%; viability, T/C (second compound 0.0316 µM, first compound 0.000316 µM): 66.7%; viability, T/C (second compound 0.0316 µM, first compound 0.001 µM): 68.2%; viability, T/C [33]: 54.3%; viability, T/C [34]: 28.1%; viability, T/C (second compound 0.1 µM, first compound 0.000316 µM): 62.6%; viability, T/C (second compound 0.1 µM, first compound 0.001 µM): 50.2%; viability, T/C [35]: 52.2%; viability, T/C [36]: 30.3%; viability, T/C (second compound 0.316 µM, first compound 0.000316 µM): 47.5%; viability, T/C (second compound 0.316 µM, first compound 0.001 µM): 56.6%; viability, T/C [37]: 49.6%; viability, T/C [38]: 33.4%; viability, T/C (second compound 1 µM, first compound 0.000316 µM): 56.7%; viability, T/C (second compound 1 µM, first compound 0.001 µM): 74%; viability, T/C [39]: 57.7%; viability, T/C [40]: 49%
CC1(C)CCC(CN2CCN(c3ccc(C(=O)NS(=O)(=O)c4ccc(NCC5CCOCC5)c([N+](=O)[O-])c4)c(Oc4cnc5[nH]ccc5c4)c3)CC2)=C(c2ccc(Cl)cc2)C1 + CCN1CCN(Cc2ccc(Nc3ncc(F)c(-c4cc(F)c5nc(C)n(C(C)C)c5c4)n3)nc2)CC1	7510 nM	7030 nM	6370 nM	6410 nM	6750 nM	104%	119%	103%	91.3%	136%	90.5%	80.8%	93.6%	75%	72.2%	94.6%	74.6%	108%	106%	107%	viability, T/C [5]: 138%; viability, T/C [6]: 29.8%; viability, T/C [11]: 137%; viability, T/C [12]: 24.4%; viability, T/C [16]: 104%; viability, T/C [17]: 117%; viability, T/C [18]: 22.7%; viability, T/C [21]: 92.3%; viability, T/C [22]: 85.3%; viability, T/C [23]: 115%; viability, T/C [24]: 21.6%; viability, T/C [27]: 102%; viability, T/C [28]: 115%; viability, T/C [29]: 123%; viability, T/C [30]: 18.5%
CCCS(=O)(=O)Nc1ccc(F)c(C(=O)c2c[nH]c3ncc(-c4ccc(Cl)cc4)cc23)c1F + CCN1CCN(Cc2ccc(Nc3ncc(F)c(-c4cc(F)c5nc(C)n(C(C)C)c5c4)n3)nc2)CC1	590 nM	681 nM	454 nM	582 nM	907 nM	95%	70.8%	52.4%	50.7%	86.4%	64.9%	66.6%	43.4%	65%	60.2%	58.8%	74.2%	65.7%	81.5%	81.2%	viability, T/C [5]: 35%; viability, T/C [6]: 24.7%; viability, T/C [11]: 30.9%; viability, T/C [12]: 20.5%; viability, T/C [16]: 30.9%; viability, T/C [17]: 23.2%; viability, T/C [18]: 29.5%; viability, T/C [21]: 63.4%; viability, T/C [22]: 38.6%; viability, T/C [23]: 28.6%; viability, T/C [24]: 23%; viability, T/C [27]: 70.3%; viability, T/C [28]: 47.4%; viability, T/C [29]: 38.1%; viability, T/C [30]: 32.1%
COc1c(OCCCN2CCOCC2)ccc2c3n(c(=NC(=O)c4cnc(N)nc4)nc12)CCN3 + CCN1CCN(Cc2ccc(Nc3ncc(F)c(-c4cc(F)c5nc(C)n(C(C)C)c5c4)n3)nc2)CC1	7.18 nM	4.99 nM	5.23 nM	6.38 nM	10.6 nM	30.8%	13.7%	10.6%	4.54%	28.3%	11.9%	8.73%	3.86%	26.3%	11.7%	12.8%	24.6%	15.8%	31.2%	21.5%	viability, T/C [31]: 63.3%; viability, T/C [32]: 43.5%; viability, T/C [33]: 54%; viability, T/C [34]: 43.6%; viability, T/C [35]: 56.5%; viability, T/C [36]: 41.6%; viability, T/C [16]: 3.55%; viability, T/C [37]: 68.2%; viability, T/C [38]: 35.9%; viability, T/C [21]: 11.7%; viability, T/C [22]: 4.79%; viability, T/C [39]: 60%; viability, T/C [40]: 54.1%; viability, T/C [27]: 12.6%; viability, T/C [28]: 5.48%
